# Data: patent US20240368727A1, “METHOD OF SELECTIVE PRECIPITATION OF METALS USING AMIDE COMPOUNDS” (The University Court of the University of Edinburgh, priority 2021, published 2024)
# Columns and labels:
# [1] = Precipitation from multi-element ICP standard solutions (FIG. 4, FIG. 25): Fe; details: 6 M HCl multi-element solution (100 mg L^−1 Fe), excess compound, 24 hours, RT
# Procedure: (§1) The following ICP multi-element standard solutions were used: Transition metal mix 3 for ICP supplied by Sigma Aldrich comprising 100 mg L^−1 Au, Ir, Os, Pd, Pt, Rh, Ru in 10% hydrochloric acid and ICP multi-element standard solution IV comprising 1000 mg L^−1 Ag, Al, B, Ba, Bi, Ca, Cd, Co, Cr, Cu, Fe, Ga, In, K, Li, Mg, Mn, Na, Ni, Pb, Sr, Tl, Zn in dilute nitric acid.
# (§2) Each solution (1 mL) was diluted to 10 mL using either 2 M HCl or 6 M HCl, resulting in solutions of 10 ppm Au, Ir, Os, Pd, Pt, Rh, Ru and 100 mg L^−Al, B, Ba, Bi, Ca, Cd, Co, Cr, Cu, Fe, Ga, In, K, Li, Mg, Mn, Na, Ni, Pb, Sr, Tl, Zn. The solutions were filtered prior to use in precipitation experiments due to the precipitation of silver chloride, which was subsequently excluded from ICP-OES analysis. The precipitation method used for the 0.01 M mixed-metal solutions was followed.
# (§3) FIGS. 25(a)-(c) show alternative embodiments of the compounds that were tested. Conditions were: 0.2 mmol of compound contacted with a 2 M or 6 M HCl multi element solution for 24 hours, RT.
# (§4) The solution comprised: • 10 mg L^−1 Au, Ir, Os, Pd, Pt, Rh, Ru; and • 100 mg L^−1 Al, B, Ba, Bi, Ca, Cd, Co, Cr, Cu, Fe, Ga, In, K, Li, Mg, Mn, Na, Ni, Pb, Sr, Tl, Zn/
# [2] = Precipitation from 0.01 M mixed-metal solution in HCl (FIG. 2): other metals; details: 0.2 mmol solid L (10-fold excess), 0.01 M mixed-metal solution in 2 M HCl
# Procedure: (§5) Hydrochloric acid solutions (2 M and 6 M) were prepared by dilution of concentrated hydrochloric acid with deionised water. Mixed-metal solutions (0.01 M) were typically prepared by dilution of 0.1 M stock solutions of each individual metal salt solution in 2 or 6 M HCl.
# (§6) Solid compound L (0.2 mmol or 0.02 mmol) was added to a vial with a magnetic stir bar and the metal-containing aqueous solution (2 mL) added. The mixture was stirred for 1 hour at room temperature (20° C.) at 500 rpm after which the stir bar was removed and the vial centrifuged. The supernatant was decanted and samples prepared for ICP-OES analysis to measure the uptake of metal by L. Samples were diluted by 100× in 2% nitric acid prior to ICP-OES analysis. This procedure was repeated in triplicate.
# (§7) FIG. 2 is a graph showing percentage metal(s) removed by precipitation from a 0.01 M mixed-metal solution in 2 M or 6 M HCl following the addition of either 0.2 mmol of compound L (10-fold excess L relative to metal) or 0.02 mmol of L (equimolar).
# [3] = Precipitation from multi-element ICP standard solutions (FIG. 4, FIG. 25): Ga; details: 6 M HCl multi-element solution (100 mg L^−1 Ga), excess compound, 24 hours, RT
# Procedure: as §1, §2, §3, §4
# [4] = Selective precipitation from waste printed circuit boards (Table 3): Ni; details: 20% aqua regia solution from waste printed circuit boards; 0.02 mmol L, 1 hour
# Procedure: (§8) End-of-life printed circuit boards were supplied by Edinburgh School of Chemistry workshop. Gold-tipped sections of the circuit boards (22.85 g) were cut off and soaked in 100 mL aqua regia for 24 hours. This solution was then diluted with deionised water to 250 mL and the metal content analysed by ICP-OES.
# (§9) An aliquot of the e-waste solution (2 mL) was stirred with L (0.0059 g, 0.02 mmol, excess with respect to the gold concentration) for 1 hour at room temperature after which the stir bar was removed and the vial centrifuged. The supernatant was decanted and samples prepared for ICP-OES analysis to measure the uptake of metal. Samples were diluted by 1000× and 20× in 2% nitric acid prior to ICP-OES analysis. This procedure was repeated in triplicate.
# [5] = Precipitation from 0.01 M mixed-metal solution in HCl (FIG. 2): Sn; details: excess L, 0.01 M mixed-metal solution in 6 M HCl
# Procedure: as §5, §6, §7
# [6] = Selective precipitation from waste printed circuit boards (Table 3): Cu; details: 20% aqua regia solution from waste printed circuit boards; 0.02 mmol L, 1 hour
# Procedure: as §8, §9
# [7] = Selective precipitation from waste printed circuit boards (Table 3): Sn; details: 20% aqua regia solution from waste printed circuit boards; 0.02 mmol L, 1 hour
# Procedure: as §8, §9
# [8] = Precipitation from multi-element ICP standard solutions (FIG. 4, FIG. 25): Au; details: excess compound, 24 hours, RT
# Procedure: as §1, §2, §3, §4
# [9] = Precipitation from 0.01 M mixed-metal solution in HCl (FIG. 2): Pt; details: excess L, 0.01 M mixed-metal solution in 6 M HCl
# Procedure: as §5, §6, §7
# [10] = Precipitation from 0.01 M mixed-metal solution in HCl (FIG. 2): Au
# Procedure: as §5, §6, §7
# [11] = Selective precipitation from waste printed circuit boards (Table 3): Au; details: 20% aqua regia solution from waste printed circuit boards; 0.02 mmol L, 1 hour
# Procedure: as §8, §9
# [12] = Precipitation of HAuCl4 by L from 2 M HCl (Table 2); details: 0.01M HAuCl4 in 2M HCl after contact with L
# Procedure: Table 2 below describes precipitation of HAuCl4 by L from 2 M HCl followed by its release from L as HAuCl4 using deionised water. All solutions were diluted 100× prior to ICP-OES analysis.
# [13] = Selective stripping with H-tube apparatus (FIG. 3)
# Procedure: Solid L (0.2 mmol) was added to one side of the H-tube with a stir bar. The metal-containing aqueous solution (2 mL) was then added to the solids and the mixture stirred for 1 hour at room temperature at 500 rpm, after which it was passed through the glass frit of the H-tube with the aid of compressed air or N2 gas. The filtrate was collected for ICP-OES analysis to determine metal uptake. The solids were subsequently washed with 2 M HCl (3×2 mL) for 30 mins, with each 2 mL solution being passed through the glass frit of the H-tube. The solids were then washed with ultrapure deionised water (5×2 mL) in the same manner. The use of a H-tube allows for all solids to be retained in the same vessel to minimise any loss of metal due to material transfer. This procedure was repeated in duplicate.
# (a) orange bars: Percentage metal removed by precipitation from a 0.01 M mixed-metal solution in 6 M HCl.
# (b) green bars: percentage of metal stripped from the precipitate by a 2 M HCl wash.
# (c) blue bars: percentage of metal stripped from the precipitate after a subsequent wash with DI water.
# [14] = Gold precipitation from HAuCl4 solutions versus acid concentration and temperature (FIGS. 7-9)
# [15] = Precipitation from 0.01 M mixed-metal solution in HCl (FIG. 2): Fe; details: excess L, 0.01 M mixed-metal solution in 6 M HCl
# Procedure: as §5, §6, §7
# [16] = Precipitation from multi-element ICP standard solutions (FIG. 4, FIG. 25): Tl; details: excess compound, 24 hours, RT
# Procedure: as §1, §2, §3, §4
# [17] = Precipitation of Au by L from various aqueous matrices (Table 1); details: 0.059 g L, 1 hour, room temperature
# Procedure: Conditions: 2 mL Au solution contacted with 0.059 g L for 1 hour, room temperature. Solution filtered and diluted 100× in 2% HNO3 prior to ICP-OES analysis. *HAuCl4 used. **Au^0 added to sulfuric acid solution with a few drops of 30% hydrogen peroxide added to aid dissolution of Au. All solutions were diluted 100× prior to ICP-OES analysis.
# [18] = Selective precipitation from waste printed circuit boards (Table 3): Pb; details: 20% aqua regia solution from waste printed circuit boards; 0.02 mmol L, 1 hour
# Procedure: as §8, §9
# [19] = Quantitative NMR solubility experiments; assay type: physicochemical
# Procedure: ^1H NMR spectra were recorded on a Bruker Avance III 400 MHz spectrometer. 2 M and 6 M HCl solutions were diluted from concentrated HCl in D2O. A 0.1 M solution of L in 2 M or 6 M HCl was prepared by adding L (0.0178 g) to an NMR tube along with the relevant HCl/D2O solution (0.55 mL) and 1 M tert-butanol in D2O (0.05 mL) as an internal standard. Any undissolved solids were allowed to settle to the bottom of the NMR tube before acquiring ^1H NMR spectra.
# ^1H NMR spectra were acquired for 2 M HCl solutions between 300-350 K in 10 K increments and for 6 M HCl solutions between 300-330 K in 10 K increments; attempts to acquire additional spectra beyond 330 K for these latter samples were unsuccessful due to excessive line broadening of the spectra and difficulties with sample locking.
# [20] = Precipitation from multi-element ICP standard solutions (FIG. 4): Pt; details: multi-element ICP standard solutions in HCl, Pt present as Pt(II), excess L
# Procedure: as §1, §2
# [21] = Precipitation from 0.01 M mixed-metal solution of precious metals in 6 M HCl (FIG. 10); details: 0.01 M precious metals in 6 M HCl
# Procedure: FIG. 10 Graph showing percentage metal(s) removed by precipitation from a 0.01 M mixed-metal solution of precious metals in 6 M HCl following the addition of either 0.2 mmol of compound L (10-fold excess L relative to metal) or 0.02 mmol of L (equimolar);
# as §5, §6
# Referring to FIG. 10, there is shown a graph depicting percentage metal(s) removed by precipitation from a 0.01 M mixed-metal solution of precious metals in 6 M HCl following the addition of either 0.2 mmol of compound L (10-fold excess L relative to metal) or 0.02 mmol of L (equimolar).
smiles,measurement,setting,value
CN(CCN(C)C(=O)c1ccccc1)C(=O)c1ccccc1 [L],% uptake / precipitation of Fe,[1],70%
same,co-precipitation of other metals,[2],< 5%
same,% uptake / precipitation of Ga,[3],> 99%
same,"% metal precipitated, Ni",[4],0%
same,uptake of Sn,[5],complete uptake
same,"% metal precipitated, Cu",[6],0%
same,"% metal precipitated, Sn",[7],0%
same,% uptake / precipitation of Au,[8]; 2 M HCl multi-element solution (10 mg L^−1 Au),70%
same,% uptake / precipitation of Au,[8]; 6 M HCl multi-element solution (10 mg L^−1 Au),> 99%
same,uptake of Pt,[9],complete uptake
same,removal of Au by precipitation,"[10]; 0.2 mmol solid L (10-fold excess), 0.01 M each of Au, Al, Cu, Ni, Fe, Zn, Pt, Pd, Sn in 2 M HCl",near quantitative removal of Au
same,uptake of Au,"[10]; excess L, 0.01 M mixed-metal solution in 6 M HCl",complete uptake
same,metal uptake (selectivity),"[10]; stoichiometric L (0.02 mmol), 0.01 M mixed-metal solution in 2 M HCl",gold uptake only
same,metal uptake (selectivity),"[10]; stoichiometric L, 0.01 M mixed-metal solution in 6 M HCl",selective gold uptake
same,"% metal precipitated, Au",[11],98.1%
same,% Precipitation,[12],99.6%
same,metal stripped from the precipitate by a 2 M HCl wash,"[13]; L loaded with Au, Fe, Pt and Sn at 6 M HCl, then wash with 2 M HCl","dissolution of Fe, Sn and Pt only, with Au retained on the solids"
same,metal stripped from the precipitate by subsequent wash with DI water,"[13]; isolated solids after the 2 M HCl wash, washed with DI water",releases the Au into solution
same,quantity of [HL][AuCl4] precipitated over 5 minutes on raising temperature,"[14]; 2 M HCl, from 20 to 40° C. and from 40 to 80° C.",doubles
same,precipitation of [HL][AuCl4] on addition of HAuCl4,[14]; solution of L in 12 M HCl,rapid and wholesale precipitation
same,uptake of Fe,[15],complete uptake
same,% uptake / precipitation of Tl,[16]; 2 M HCl multi-element solution (100 mg L^−1 Tl),10%
same,% uptake / precipitation of Tl,[16]; 6 M HCl multi-element solution (100 mg L^−1 Tl),95%
same,% Precipitated,"[17]; 2 mol L^−1 H2SO4 and 2M NaBr, Au^0 with H2O2, initial Au 1930 mg L^−1",99.5%
same,% Precipitated,"[17]; 2 mol L^−1 H2SO4 and 2M NaCl, Au^0 with H2O2, initial Au 1940 mg L^−1",99.4%
same,% Precipitated,"[17]; 20% Aqua regia, HAuCl4 used, initial Au 1920 mg L^−1",99.8%
same,% Precipitated,"[17]; 100% Aqua regia, HAuCl4 used, initial Au 1920 mg L^−1",99.7%
same,"% metal precipitated, Pb",[18],0%
same,concentration of dissolved L,"[19]; 2 M HCl, heated to 350 K",100 µM
same,Dissolution of L (concentration of dissolved L),"[19]; 2 M HCl, quantitative 1H NMR",0.02 mM
same,concentration of dissolved L,"[19]; 6 M HCl, 300 K",320 µM
same,increase in dissolved L on increasing HCl from 2 M to 6 M,[19]; 300 K,16 fold
same,Pt uptake,[20],no Pt uptake
same,metal(s) removed by precipitation (selectivity),[21]; equimolar L (0.02 mmol),selective precipitation of gold over other precious metals
same,metal(s) removed by precipitation (selectivity),"[21]; excess L (0.2 mmol, 10-fold)",selective co-precipitation of gold and platinum
